In one assay the target is HLA-A2.1 (Homo sapiens, UniProt P04439, D140Y/D185E/D98H/E176V/E277Q/G131W/G231S/I119V/I121R/I166T/I218V/L300P/L318F/N151K/N90K/P208A/P217A/Q86G/Q94H/R138H/R169H/T345S). Kind of assay: HLA-A2.1 binding assay of modified peptides, inhibition of radiolabeled Hbc 18-27 (Example 5). The settings on record: for IC50: modified gp100 G9-154 peptides, read-out: Binding affinity to HLA-A2.1.

The subject of assay [1] is T2 cell lines preincubated with peptide. Description: Recognition of modified peptides by natural epitope (M9-2, G9-154, G9-209, G9-280) reactive T-cells, 51Cr release on peptide-pulsed T2 cells (Example 5). Type of assay: cell-based, human. As to the method:
Assessment of antigen recognition by CTL. ^51Cr release cytotoxic assays were performed to detect the recognition of peptide and melanoma cells by CTL. To analyze peptide recognition, T2 cell lines were preincubated for 2 h at 37° C. with 1 ug/ml peptide, washed and used as target cells in a ^51Cr release cytotoxic assay. The melanoma lines 624mel was established in our laboratory (See Example 1).
In order to make more immunogenic peptides for induction of anti-melanoma T-cells than natural melanoma epitopes, a variety of peptides in which at least 1 amino acid was changed based on consensus motifs in peptides binding to a specific MHC Class I allele Falk, et al. (1991) Nature 351:290; Kubo et al. (1994) J. Immunol 152:3913; Parker, K. et al. (1992) Journal of Immunology 149:3580; Ruppert, J. et al. (1993) Cell 74:929-937) (Tables 14, 15, 16, and 17). […] By changing amino acid at the 1st, 2nd, 3rd or 9th positions which are important for HLA-A2 binding to the peptide, but less important for recognition by T-cell receptors, artificial peptides which can bind to HLA-A2.1 with higher affinity and still be recognized by natural epitope specific T-cells may be generated.

In another assay the test system is HLA-A2.1+ T2 cells. The conditions noted are these: for % specific lysis at E:T = 40:1: peptide 1 ug/ml.

The structures appear in SMILES notation. Like-named read-outs stand apart in the source and are kept apart here. Where a SMILES comes first, the peptide text is derived from it.

For the compound `CC(C)C[C@H](NC(=O)[C@@H](N)CC(C)C)C(=O)N[C@@H](Cc1c[nH]c2ccccc12)C(=O)NCC(=O)N[C@@H](CCC(N)=O)C(=O)N[C@@H](Cc1ccc(O)cc1)C(=O)N[C@@H](Cc1c[nH]c2ccccc12)C(=O)N[C@@H](CCC(N)=O)C(=O)N[C@H](C(=O)O)C(C)C` [G9-154-1L2L] (H-LLWGQYWQV-OH; N-terminus and C-terminus assumed), the IC50 on HLA-A2.1 is 1.6 nM. In addition, the “Recognition by G9-154 reactive T-cell” value in assay [1] is reported as “+ (+, recognized)”.

On to `CC(C)C[C@H](NC(=O)[C@@H](N)CCCCN)C(=O)N[C@@H](Cc1c[nH]c2ccccc12)C(=O)NCC(=O)N[C@@H](CCC(N)=O)C(=O)N[C@@H](Cc1ccc(O)cc1)C(=O)N[C@@H](Cc1c[nH]c2ccccc12)C(=O)N[C@@H](CCC(N)=O)C(=O)N[C@H](C(=O)O)C(C)C` [G9-154-2L] (H-KLWGQYWQV-OH; N-terminus and C-terminus assumed), for which, on HLA-A2.1, the IC50 came out at 2 nM. Also, the “Recognition by G9-154 reactive T-cell” value in assay [1] is listed as “+ (+, recognized)”.

As to `CC(C)[C@H](NC(=O)[C@H](CCC(N)=O)NC(=O)[C@H](Cc1c[nH]c2ccccc12)NC(=O)[C@H](Cc1ccc(O)cc1)NC(=O)[C@H](CCC(N)=O)NC(=O)CNC(=O)[C@H](Cc1c[nH]c2ccccc12)NC(=O)[C@@H](NC(=O)[C@@H](N)Cc1ccccc1)[C@@H](C)O)C(=O)O` [G9-154-1F] (H-FTWGQYWQV-OH; N-terminus and C-terminus assumed), at HLA-A2.1, the IC50 was determined as 1.6 nM. For the same compound, the “Recognition by G9-154 reactive T-cell” value in assay [1] is “−”.

On to `CC[C@H](C)[C@H](NC(=O)[C@@H](N)[C@@H](C)O)C(=O)N[C@H](C(=O)N[C@@H](CC(=O)O)C(=O)N[C@@H](CCC(N)=O)C(=O)N[C@H](C(=O)N1CCC[C@H]1C(=O)N[C@@H](Cc1ccccc1)C(=O)N[C@@H](CO)C(=O)N[C@H](C(=O)O)C(C)C)C(C)C)[C@@H](C)O` [G10208], for which the “% specific lysis at E:T = 40:1” value is reported as 42% with HLA-A2.1+ T2 cells (Exp. 1, TIL 620-1); 36% in the assay on HLA-A2.1+ T2 cells (Exp. 1, TIL 620-2); 7% in the assay with HLA-A2.1+ T2 cells (Exp. 1, TIL 660-1); 4% with HLA-A2.1+ T2 cells (Exp. 1, TIL 1143); 2% in the assay on HLA-A2.1+ T2 cells (Exp. 1, TIL 1200); 3% in the assay with HLA-A2.1+ T2 cells (Exp. 1, TIL 1235). The “% specific lysis at E:T = 40:1” value with HLA-A2.1+ T2 cells (Exp. 2, TIL 620-1) is reported as 35%; with HLA-A2.1+ T2 cells (Exp. 2, TIL 620-2), 80%; in the assay with HLA-A2.1+ T2 cells (Exp. 2, TIL 660-2), 7%; in the assay on HLA-A2.1+ T2 cells (Exp. 2, TIL 1143), 10%; in the assay with HLA-A2.1+ T2 cells (Exp. 2, TIL 1200) it was 1%; in the assay with HLA-A2.1+ T2 cells (Exp. 2, TIL 1235) it was 5%. Moreover, the “TIL that recognize the peptide” value in the assay with HLA-A2.1+ T2 cells (cytotoxicity assays, T2 preincubated with peptide) is “recognized only by TIL620”.

As for `CC[C@H](C)[C@H](NC(=O)CNC(=O)[C@H](C)NC(=O)[C@@H](N)Cc1ccccc1)C(=O)NCC(=O)N[C@H](C(=O)N[C@@H](CC(C)C)C(=O)N[C@H](C(=O)N[C@H](C(=O)O)C(C)C)[C@@H](C)O)[C@@H](C)CC` [M9-2-1F], the “binding affinity to HLA-A2.1 compared with the natural epitope” value on HLA-A2.1 is reported as “higher binding affinity”. In assay [1], the “Recognition by M9-2 reactive T-cell” value was “+ (+, recognized)” and the “recognition by the original melanoma reactive T-cells” value is on record as “recognized”.

With `CC(C)C[C@H](NC(=O)[C@@H](N)Cc1c[nH]c2ccccc12)C(=O)N[C@@H](Cc1c[nH]c2ccccc12)C(=O)NCC(=O)N[C@@H](CCC(N)=O)C(=O)N[C@@H](Cc1ccc(O)cc1)C(=O)N[C@@H](Cc1c[nH]c2ccccc12)C(=O)N[C@@H](CCC(N)=O)C(=O)N[C@H](C(=O)O)C(C)C` [G9-154-1W2L] (H-WLWGQYWQV-OH; N-terminus and C-terminus assumed), the IC50 on HLA-A2.1 was 2.8 nM. In addition, the “Recognition by G9-154 reactive T-cell” value in assay [1] is “−”.

Consider `CC[C@H](C)[C@H](N)C(=O)N[C@H](C(=O)N[C@@H](CC(=O)O)C(=O)N[C@@H](CCC(N)=O)C(=O)N[C@H](C(=O)N1CCC[C@H]1C(=O)N[C@@H](Cc1ccccc1)C(=O)N[C@@H](CO)C(=O)N[C@H](C(=O)O)C(C)C)C(C)C)[C@@H](C)CC` [G9-209-2I], for which, on HLA-A2.1, the “binding affinity to HLA-A2.1 compared with the natural epitope” value is “higher binding affinity”. In addition, in assay [1], the “Recognition by G9-209 reactive T-cell” value is on record as “+ (+, recognized)” and the “recognition by the original melanoma reactive T-cells” value is “recognized”.

On to `CC(C)C[C@H](NC(=O)[C@@H](N)Cc1ccccc1)C(=O)N[C@@H](Cc1c[nH]c2ccccc12)C(=O)NCC(=O)N[C@@H](CCC(N)=O)C(=O)N[C@@H](Cc1ccc(O)cc1)C(=O)N[C@@H](Cc1c[nH]c2ccccc12)C(=O)N[C@@H](CCC(N)=O)C(=O)N[C@H](C(=O)O)C(C)C` [G9-154-1F2L] (H-FLWGQYWQV-OH; N-terminus and C-terminus assumed), for which, at HLA-A2.1, the IC50 is 2.6 nM. Besides, the “Recognition by G9-154 reactive T-cell” value in assay [1] is reported as “−”.

Turning to `CC(C)[C@H](NC(=O)[C@H](CO)NC(=O)[C@H](Cc1ccccc1)NC(=O)[C@@H]1CCCN1C(=O)[C@@H](NC(=O)[C@H](CCC(N)=O)NC(=O)[C@H](CC(=O)O)NC(=O)[C@@H](NC(=O)[C@@H](N)Cc1ccc(O)cc1)[C@@H](C)O)C(C)C)C(=O)O` [G9-209-1Y], on HLA-A2.1, the “binding affinity to HLA-A2.1 compared with the natural epitope” value is recorded as “higher binding affinity”. Further, in assay [1], the “Recognition by G9-209 reactive T-cell” value was “+ (+, recognized)” and the “recognition by the original melanoma reactive T-cells” value is on record as “recognized”.

In the case of `CC(C)C[C@H](NC(=O)[C@@H](N)Cc1ccc(O)cc1)C(=O)N[C@@H](CC(=O)O)C(=O)N[C@@H](CCC(N)=O)C(=O)N[C@H](C(=O)N1CCC[C@H]1C(=O)N[C@@H](Cc1ccccc1)C(=O)N[C@@H](CO)C(=O)N[C@H](C(=O)O)C(C)C)C(C)C` [G9-209-1Y2L], the “binding affinity to HLA-A2.1 compared with the natural epitope” value on HLA-A2.1 is reported as “higher binding affinity”. Besides, in assay [1], the “Recognition by G9-209 reactive T-cell” value is “+ (+, recognized)” and the “recognition by the original melanoma reactive T-cells” value is “recognized”.

For `CC[C@H](C)[C@H](NC(=O)CNC(=O)[C@@H](NC(=O)[C@H](Cc1ccc(O)cc1)NC(=O)[C@H](C)NC(=O)[C@H](C)N)[C@@H](C)CC)C(=O)N[C@@H](CC(C)C)C(=O)N[C@H](C(=O)N[C@H](C(=O)O)C(C)C)[C@@H](C)O` [M9-2-3Y], on HLA-A2.1, the “binding affinity to HLA-A2.1 compared with the natural epitope” value was “higher binding affinity”. Further, in assay [1], the “Recognition by M9-2 reactive T-cell” value is listed as “+ (+, recognized)” and the “recognition by the original melanoma reactive T-cells” value was “recognized”.

For the compound `CC(C)[C@H](NC(=O)[C@H](CCC(N)=O)NC(=O)[C@H](Cc1c[nH]c2ccccc12)NC(=O)[C@H](Cc1ccc(O)cc1)NC(=O)[C@H](CCC(N)=O)NC(=O)CNC(=O)[C@H](Cc1c[nH]c2ccccc12)NC(=O)[C@@H](NC(=O)[C@@H](N)Cc1c[nH]c2ccccc12)[C@@H](C)O)C(=O)O` [G9-154-1W] (H-WTWGQYWQV-OH; N-terminus and C-terminus assumed), the IC50 on HLA-A2.1 is 60 nM. Further, in assay [1], the “Recognition by G9-154 reactive T-cell” value is “−”.

Regarding `CC(C)[C@H](NC(=O)[C@H](CO)NC(=O)[C@H](Cc1ccccc1)NC(=O)[C@@H]1CCCN1C(=O)[C@@H](NC(=O)[C@H](CCC(N)=O)NC(=O)[C@H](CC(=O)O)NC(=O)[C@@H](NC(=O)[C@@H](N)Cc1c[nH]c2ccccc12)[C@@H](C)O)C(C)C)C(=O)O` [G9-209-1W] (H-WTDQVPFSV-OH; N-terminus and C-terminus assumed), the “Recognition by G9-209 reactive T-cell” value in assay [1] is “+ (+, recognized)”.

With `CC[C@H](C)[C@H](N)C(=O)N[C@@H](CC(C)C)C(=O)N[C@@H](Cc1c[nH]c2ccccc12)C(=O)N[C@@H](CCC(N)=O)C(=O)N[C@H](C(=O)N1CCC[C@H]1C(=O)N[C@@H](Cc1ccccc1)C(=O)N[C@@H](CO)C(=O)N[C@H](C(=O)O)C(C)C)C(C)C` [G9-209-2L3W] (H-ILWQVPFSV-OH; N-terminus and C-terminus assumed), the “Recognition by G9-209 reactive T-cell” value in assay [1] is given as “−”.

The values above are taken from patent US8273724B2, “Melanoma antigens and their use in diagnostic and therapeutic methods” (The United States of America, as represented by the …, priority 1994, dated 2012).
